# Reference: ChEMBL document CHEMBL1153169, “Structure-activity relationships of the ultrapotent vanilloid resiniferatoxin (RTX): The side chain benzylic methylene” (Bioorg Med Chem Lett, 2010)
# Target: T1, Transient receptor potential cation channel subfamily V member 1 (Homo sapiens, UniProt Q8NER1)
# Experiment: Antagonist activity at human TRPV1 expressed in HEK293 cells assessed as inhibition of intracellular calcium level
# Type: functional, cell-based
# T1 sequence (Q8NER1 whole entry): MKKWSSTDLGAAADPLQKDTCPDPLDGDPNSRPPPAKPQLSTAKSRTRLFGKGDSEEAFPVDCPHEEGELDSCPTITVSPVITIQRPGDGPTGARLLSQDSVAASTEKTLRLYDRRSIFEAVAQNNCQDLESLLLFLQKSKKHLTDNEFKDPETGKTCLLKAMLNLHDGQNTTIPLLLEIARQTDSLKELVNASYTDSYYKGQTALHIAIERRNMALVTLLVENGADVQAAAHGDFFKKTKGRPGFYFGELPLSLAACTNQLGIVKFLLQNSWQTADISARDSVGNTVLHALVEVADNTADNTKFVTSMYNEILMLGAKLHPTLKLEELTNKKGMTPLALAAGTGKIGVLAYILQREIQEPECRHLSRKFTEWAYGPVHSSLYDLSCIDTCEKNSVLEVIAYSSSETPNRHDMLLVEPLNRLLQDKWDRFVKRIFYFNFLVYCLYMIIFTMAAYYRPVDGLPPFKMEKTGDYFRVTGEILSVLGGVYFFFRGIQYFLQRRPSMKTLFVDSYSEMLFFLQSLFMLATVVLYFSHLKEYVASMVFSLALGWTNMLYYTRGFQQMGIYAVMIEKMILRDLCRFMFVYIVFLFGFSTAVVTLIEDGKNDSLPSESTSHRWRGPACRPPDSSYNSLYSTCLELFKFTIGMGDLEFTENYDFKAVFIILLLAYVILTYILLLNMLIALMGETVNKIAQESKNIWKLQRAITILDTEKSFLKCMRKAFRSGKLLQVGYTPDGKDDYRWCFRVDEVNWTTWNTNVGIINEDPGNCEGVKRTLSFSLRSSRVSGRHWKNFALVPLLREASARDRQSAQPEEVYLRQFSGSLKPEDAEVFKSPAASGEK
row,Structure (SMILES),IC50 [nM]
1,C=C(C)[C@]12C[C@@H](C)[C@@]34O[C@](Cc5ccccc5)(O[C@@H]1[C@@H]3C=C(COC(=O)Cc1cc(I)c(O)c(OC)c1)C[C@]1(O)C(=O)C(C)=C[C@@H]41)O2 [IODORESINIFERATOXIN],4000

# Target: T1, Transient receptor potential cation channel subfamily V member 1
# Experiment: Agonist activity at human TRPV1 expressed in HEK293 cells assessed as increase in intracellular calcium level
# Type: functional, cell-based
row,Structure (SMILES),EC50 [nM]
1,C=C(C)[C@]12C[C@@H](C)[C@@]34O[C@](Cc5ccccc5)(O[C@@H]1[C@@H]3C=C(COC(=O)C(O)c1ccc(O)c(OC)c1)C[C@]1(O)C(=O)C(C)=C[C@@H]41)O2 (some centres undefined),19
2,C=C(C)[C@]12C[C@@H](C)[C@@]34O[C@](Cc5ccccc5)(O[C@@H]1[C@@H]3C=C(COC(=O)C(C)c1ccc(O)c(OC)c1)C[C@]1(O)C(=O)C(C)=C[C@@H]41)O2 (some centres undefined),0.98
3,C=C(C)[C@]12C[C@@H](C)[C@@]34O[C@](Cc5ccccc5)(O[C@@H]1[C@@H]3C=C(COC(=O)Oc1ccc(O)c(OC)c1)C[C@]1(O)C(=O)C(C)=C[C@@H]41)O2,13.7
4,C=C(C)[C@]12C[C@@H](C)[C@@]34O[C@](Cc5ccccc5)(O[C@@H]1[C@@H]3C=C(COC(=O)C(OC(C)=O)c1ccc(O)c(OC)c1)C[C@]1(O)C(=O)C(C)=C[C@@H]41)O2 (some centres undefined),0.65
5,C=C(C)[C@]12C[C@@H](C)[C@@]34O[C@](Cc5ccccc5)(O[C@@H]1[C@@H]3C=C(COC(=O)C(OC)c1ccc(O)c(OC)c1)C[C@]1(O)C(=O)C(C)=C[C@@H]41)O2 (some centres undefined),17.4
6,C=C(C(=O)OCC1=C[C@H]2[C@H]3O[C@@]4(Cc5ccccc5)O[C@@]2([C@H](C)C[C@]3(C(=C)C)O4)[C@@H]2C=C(C)C(=O)[C@@]2(O)C1)c1ccc(O)c(OC)c1,0.15
7,C=C(C)[C@]12C[C@@H](C)[C@@]34O[C@](Cc5ccccc5)(O[C@@H]1[C@@H]3C=C(COC(=O)Oc1cc(I)c(O)c(OC)c1)C[C@]1(O)C(=O)C(C)=C[C@@H]41)O2,0.0047

# Target: T1, Transient receptor potential cation channel subfamily V member 1
# Experiment: Selectivity ratio of EC50 for drug to capsaicin for human TRPV1 expressed in HEK293 cells assessed as increase in intracellular calcium level
# Type: cell-based
row,Structure (SMILES),Ratio EC50
1,C=C(C)[C@]12C[C@@H](C)[C@@]34O[C@](Cc5ccccc5)(O[C@@H]1[C@@H]3C=C(COC(=O)Oc1ccc(O)c(OC)c1)C[C@]1(O)C(=O)C(C)=C[C@@H]41)O2,3
